Series [1] concerns amide synthetase McbA. Nature of the series: Amidation assay with purified McbA variants, products analyzed by LC-MS. It counts as biochemical, Marinactinospora thermotolerans. Particulars: for Fold-Increase in yield: best ML-predicted variant (ML-McbA) versus wt-McbA for the named product, purified enzyme 0.5 mg/mL, n=3. As for the experimental part: (§1) Amide products (along with acid substrates and some adenylated acid intermediates) were analyzed using an Agilent G6125B Single Quadrupole LC/MSD system equipped with an electrospray ionization source set to positive ionization mode. The quenched samples were centrifuged for 10 min at 4,500×g to remove precipitated proteins. A separate 384-well plate for sample injection into the HPLC-MS was prepared by diluting 5 μL of the quenched samples with 25 μL of methanol using the Integra VIAFLO. Trace amounts of compounds were detected using MS, while many compounds were present in high enough concentration to quantify by diode array detector (DAD) at 254 nm. Compounds were separated on a Luna C18 Column (Phenomenex 00D-4251-B0) using mobile phases (A) H2O with 0.1% formic acid and (B) Acetonitrile. The general method for chromatographic separation was carried out using the following gradients at a constant flow rate of 0.5 mL/min: 0 min 5% B; 1 min 5% B; 4 min 95% B; 4.5 min 95% B; 5 min 5% B. For the MS, capillary voltage was set at 3 kV, and nitrogen gas was used for nebulizing (35 psig) and drying (12 l/min, 350° C.). The MS was calibrated using Tuning Mix (Agilent G2421-60001) before measurements were taken. MS data were acquired with a scan range of 50-600 m/z with various SIM m/z's according to which compound the inventors were screening for. LC-MS data were collected and analyzed using Agilent OpenLab CDS ChemStation software. The product yield was calculated by dividing the DAD peak area for the amide product by the sums of the peak areas of both the amide and the acid substrate.
Amidation assays for the purified McbA variants were set up similarly as described above. 8-μL reactions were assembled in triplicate, containing […], 10 mM MgCl2, 10 U/mL pyrophosphatase (Sigma I5907), 0.5 mg/mL McbA, 10% v/v DMSO, and volume to fill of 50 mM potassium phosphate pH 7.5. For assaying the production of cinchocaine and procainamide, substrates were decreased in stoichiometric amounts to 20 mM and 10 mM, respectively. This was to compensate for an observed poor solubility of these two acids (2-butoxyquinoline-4-carboxylic acid and 4-aminobenzoic acid) in the purified reaction at 10% v/v DMSO. Reactions were incubated at 37° C. for 16 hours and then quenched with 25-μL of methanol. The CAS numbers of all chemicals used in the hot spot screens, as well as the amide standards the inventors purchased, can be found in Table 1.
With the MLDE strategy validated, the approach could enable parallelized protein engineering for a wide variety of molecules (FIG. 14A). Starting with an identified target reaction from our substrate scope screen (FIGS. 5A-5F), we could use the same instance of our 1,280 single mutant McbA variant library to perform an HSS, select four hot spots, train and implement our machine learning model, and experimentally test the top 24 predictions (FIG. 14B). This approach was used to engineer distinct McbA mutants for the synthesis of an additional six pharmaceutical compounds (FIGS. 14B-14C). After identifying the best predicted variant for each reaction, the best variant for each reaction was expressed and purified, and the activity for each compound compared to wt-McbA (FIG. 14D). Fold-increase in yield observed compares wt-McbA to ML-McbA (n=3) for each small-molecule pharmaceutical. Increases in yield of the best mutant were observed ranging from 1.6-fold to 34-fold over wt-McbA for the six compounds tested.

Series [2] deals with amide synthetase McbA. Nature of the series: Substrate scope screen of McbA (all-by-all acids and amines, RP-HPLC). It counts as biochemical, Marinactinospora thermotolerans. The settings on record: for wt conversion: conversion to the named amide product by wild-type McbA, ~1 μM enzyme, 25 mM substrates, 10% DMSO. The method, then: as §1, with “MS data were acquired with a scan range of 50-600 m/z with various SIM m/z's according to which compound the inventors were screening for.” left out
(§2) All high-throughput assays (hot spot screen, iterative site saturation mutagenesis, substrate scope, ML predictions validation, and ML prediction exploration) were assembled in 384-well plates (Bio-Rad) using an Integra VIAFLO liquid handling robot. […] The amidation assay was initiated by adding 3-μL of crude CFPS reaction containing an expressed McbA variant, with final concentrations of 25 mM ATP, 25 mM acid, 25 mM amine, 10% v/v DMSO, and ˜1 μM of enzyme (determined by ^14C-leucine incorporation using previously described protocols^66). […]

In series [3] the test system is amide synthetase McbA. In words: High-throughput amidation assay with crude CFPS-expressed McbA variants (hot spot screen, ISM). It is filed as biochemical, Marinactinospora thermotolerans. The settings on record: for conversion (yield) of moclobemide: final screening conditions, moclobemide synthesis, 25 mM ATP, acid, amine, 10% v/v DMSO, 37° C. 16 hours. The method, then:
as §1, with “MS data were acquired with a scan range of 50-600 m/z with various SIM m/z's according to which compound the inventors were screening for.” left out
as §2

The nature of series [4]: Protein melting temperature by circular dichroism. It is filed as physicochemical. As for the experimental part: Protein melting temperature was determined using a Jasco J-810 circular dichroism spectrophotometer with a 10 mm path length cuvette monitored at 222 nm. McbA samples were first buffer exchanged into a 1× phosphate buffered saline solution, pH 7.4, and diluted to 0.2-0.4 mg/mL.

Series [5] concerns amide synthetase McbA. In words: Apparent steady-state kinetics, amide bond formation coupled to NADH oxidation. It counts as biochemical, Marinactinospora thermotolerans. The settings on record: kcat/KM for the amine, versus wt-McbA. The method, then: McbA apparent kinetics for the amine pair of moclobemide (4-(2-aminoethyl)morpholine) were determined by enzymatically coupling amide bond formation (and the concomitant release of AMP from the acyl-AMP intermediate by its substitution with the amine) with the oxidation of NADH, as shown in FIGS. 7A-7B. Reactions contained 100 mM MOPS-KOH pH 7.8, 5 mM MgCl2, 2.5 mM phosphoenolpyruvate, 5 mM ATP, 0.3 mM NADH, 50 mM 4-chlorobenzoic acid, 15 U/mL pyruvate kinase and lactate dehydrogenase enzyme mix (Sigma-Aldrich P0294), 25 U/mL myokinase (Sigma-Aldrich 475941), and various concentrations (50-200 μg/mL) of the studied McbA variant. As the acid here (4-chlorobenzoic acid) has poor solubility in water and was dissolved in DMSO, the final reactions contained 10% v/v DMSO (equivalent to our amidation screens). 180-μL reactions were first equilibrated at 30° C. for 3 minutes and then initiated by adding 20-μL of amine. The initial velocity was determined for different concentrations of amine (0.1 mM-50 mM) by measuring NADH absorbance at 340 nm on a Cary 60 UV-Vis (Agilent). Data were collected and analyzed using the Cary WinUV Kinetics Application software (Agilent). Michaelis-Menten graphs were plotted in GraphPad Prism and fit using the default Michaelis-Menten non-linear regression analysis tool.

Changes are numbered by the printed parent chain.

Consider `CCCCOc1cc(C(=O)NCCN(CC)CC)c2ccccc2n1` [Cinchocaine], for which the Fold-Increase in yield with amide synthetase McbA [1] is given as 1.7 fold. The wt conversion with amide synthetase McbA [2] is given as 2%.
On to `COc1cc(C(=O)NC2CCCNC2)cc(OC)c1OC` (centres unmarked) [Troxipide], for which, in the series on amide synthetase McbA [1], the Fold-Increase in yield is reported as 34 fold.
The same measure, in the same setting: the result for `CCN(CC)CCNC(=O)c1ccc(N)cc1` [Procainamide] reads 10 fold.
Same read-out and setting: the result for `CCN1CCCC1CNC(=O)c1cc(S(N)(=O)=O)ccc1OC` (centres unmarked) [Sulpiride] reads 6 fold; that for `COc1cc(C(=O)NCc2ccc(OCCN(C)C)cc2)cc(OC)c1OC` [Trimethobenzamide], 4.1 fold.
`CCN(CC)CCNC(=O)c1cc(Cl)c(N)cc1OC` [Metoclopramide]: the wt conversion with amide synthetase McbA [2] is given as 3%.
In the case of `CCN(CC)CCNC(=O)c1ccc(N)c(Cl)c1` [Declopramide], the Fold-Increase in yield in the series on amide synthetase McbA [1] was 2.7 fold.
In the case of `COc1ccc(C(=O)NCc2ccc(OCCN(C)C)cc2)cc1OC` [Itopride], in the series with amide synthetase McbA [1], the Fold-Increase in yield is listed as 1.6 fold.

B1: wt-McbA: wild-type amide bond synthetase McbA from Marinactinospora thermotolerans with CSL-tag, SEQ ID NO: 2 (protein)
chain: MEKKIWSHPQFEKGGSGENLYFQGGYARRVMDGIGEVAVTGAGGSVTGARLRHQVRLLAHALTEAGIPPGRGVACLHANTWRAIALRLAVQAIGCHYVGLRPTAAVTEQARAIAAADSAALVFEPSVEARAADLLERVSVPVVLSLGPTSRGRDILAASVPEGTPLRYREHPEGIAVVAFTSGTTGTPKGVAHSSTAMSACVDAAVSMYGRGPWRFLIPIPLSDLGGELAQCTLATGGTVVLLEEFQPDAVLEAIERERATHVFLAPNWLYQLAEHPALPRSDLSSLRRVVYGGAPAVPSRVAAARERMGAVLMQNYGTQEAAFIAALTPDDHARRELLTAVGRPLPHVEVEIRDDSGGTLPRGAVGEVWVRSPMTMSGYWRDPERTAQVLSGGWLRTGDVGTFDEDGHLHLTDRLQDIIIVEAYNVYSRRVEHVLTEHPDVRAAAVVGVPDPDSGEAVCAAVVVADGADPDPEHLRALVRDHLGDLHVPRRVEFVRSIPVTPAGKPDKVKVRTWFTD
modifications: CSL-tag
For B1, the “conversion (yield) of moclobemide” value in the series with amide synthetase McbA [3] worked out at 12%. Further, the “amide bond formation step for troxipide” value in the series on amide synthetase McbA [1] (proficient at adenylating 3,4,5-trimethoxybenzoic acid, intermediate seen by LCMS) is on record as “unable to catalyze amide bond formation”. For the same molecule, the stereoselectivity result with amide synthetase McbA [2] (sulpiride synthesis) is given as “strongly favoring the synthesis of S-sulpiride over R-sulpiride”.

B2: ml-McbAtroxipide: best ML-predicted McbA variant for troxipide, SEQ ID NO: 155 (protein)
chain: B1 chain with V177A, A323L, A424T, R430V
Take B2: the increase in activity in the series on amide synthetase McbA [1] (troxipide synthesis, versus wt-McbA) is 34 fold.

B3: qm-McbAmoclobemide: quadruple mutant of McbA from ISM campaign for moclobemide, SEQ ID NO: 145 (protein)
chain: B1 chain with V177S, I220S, A323F, R430L
Regarding B3, the “conversion (yield) of moclobemide” value with amide synthetase McbA [3] was 96%. Also, the “melting point change versus wt-McbA” value in series [4] is given as “did not significantly change”. Besides, the “increase in catalytic efficiency from wt-McbA” value with amide synthetase McbA [5] was 42 fold.

B4: qm-McbAmetoclopramide: quadruple mutant of McbA from ISM campaign for metoclopramide, SEQ ID NO: 146 (protein)
chain: B1 chain with V177S, T319C, A323F, A424T
For the molecule B4, in the series with amide synthetase McbA [3] (metoclopramide synthesis, after three rounds of ISM), the “activity over wt-McbA” value was approximately 30 fold.

The record behind these values is patent US20250259704A1, “SYSTEMS AND METHODS FOR CELL-FREE ITERATIVE SITE SATURATION MUTAGENESIS AND ITS APPLICATION FOR THE DIRECTED EVOLUTION OF ENZYMES CATALYZING UNNATURAL REACTIONS” (Northwestern University, priority 2022, published 2025).
